Measured values from the supplement of paper PMC10883282.

What was measured:
Assay in all cases: relative viability vs DMSO control (72 h) (fraction); higher = more viable cells
A204 = test system: A204
Procedure, shortened: (§1)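 Percent growth from ATPLite readings, averaged over up to triplicate wells, was used as relative viability. Sarcoma cell lines were seeded into 384-well plates for 80–90% confluence, dosed after 24 h, and kept 72 h at 37 °C, 5% CO2. Data were rescaled to a range where 1 is full and 0 is none.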

G401 = test system: G401
Procedure, shortened: as §1

SYO-1 = test system: SYO-1
Procedure, shortened: as §1

SW982 = test system: SW982
Procedure, shortened: as §1

SW1353 = test system: SW1353
Procedure, shortened: as §1

HT1080 = test system: HT1080
Procedure, shortened: as §1

KHOS-NP = test system: KHOS-NP
Procedure, shortened: as §1

SW684 = test system: SW684
Procedure, shortened: as §1

RD-ES = test system: RD-ES
Procedure, shortened: as §1

KHOS-240S = test system: KHOS-240S
Procedure, shortened: as §1

SK-ES-1 = test system: SK-ES-1
Procedure, shortened: as §1

SW872 = test system: SW872
Procedure, shortened: as §1

Cc1c(F)cc(C(=O)NC2CC2)cc1-c1ccc(C(=O)NCC(C)(C)C)cn1 [Losmapimod]
Details | relative viability
A204, 0.00017 µM | 1.06
A204, 0.00051 µM | 1.07
A204, 0.00152 µM | 1.07
A204, 0.00457 µM | 1.06
A204, 0.01372 µM | 1.1
A204, 0.04115 µM | 1.07
A204, 0.1235 µM | 1.07
A204, 0.3704 µM | 1.03
A204, 1.111 µM | 1.03
A204, 3.333 µM | 0.992
A204, 10 µM | 0.901
G401, 0.00017 µM | 1.06
G401, 0.00051 µM | 1.03
G401, 0.00152 µM | 1.05
G401, 0.00457 µM | 1.074
G401, 0.01372 µM | 1.03
G401, 0.04115 µM | 1.01
G401, 0.1235 µM | 0.981
G401, 0.3704 µM | 0.964
G401, 1.111 µM | 0.955
G401, 3.333 µM | 0.904
G401, 10 µM | 0.887
HT1080, 0.00017 µM | 1.09
HT1080, 0.00051 µM | 1.09
HT1080, 0.00152 µM | 1.12
HT1080, 0.00457 µM | 1.11
HT1080, 0.01372 µM | 1.1
HT1080, 0.04115 µM | 1.149
HT1080, 0.1235 µM | 1.16
HT1080, 0.3704 µM | 1.13
HT1080, 1.111 µM | 1.11
HT1080, 3.333 µM | 1.09
HT1080, 10 µM | 1.11
KHOS-240S, 0.00017 µM | 1.07
KHOS-240S, 0.00051 µM | 1.1
KHOS-240S, 0.00152 µM | 1.07
KHOS-240S, 0.00457 µM | 1.09
KHOS-240S, 0.01372 µM | 1.04
KHOS-240S, 0.04115 µM | 1.06
KHOS-240S, 0.1235 µM | 1.02
KHOS-240S, 0.3704 µM | 1
KHOS-240S, 1.111 µM | 0.951
KHOS-240S, 3.333 µM | 0.97
KHOS-240S, 10 µM | 0.893
KHOS-NP, 0.00017 µM | 1.08
KHOS-NP, 0.00051 µM | 1.1
KHOS-NP, 0.00152 µM | 1.09
KHOS-NP, 0.00457 µM | 1.1
KHOS-NP, 0.01372 µM | 1.11
KHOS-NP, 0.04115 µM | 1.12
KHOS-NP, 0.1235 µM | 1.097
KHOS-NP, 0.3704 µM | 1.1
KHOS-NP, 1.111 µM | 1.097
KHOS-NP, 3.333 µM | 1.081
KHOS-NP, 10 µM | 1.1
RD-ES, 0.00017 µM | 1.01
RD-ES, 0.00051 µM | 0.995
RD-ES, 0.00152 µM | 1.02
RD-ES, 0.00457 µM | 0.993
RD-ES, 0.01372 µM | 0.998
RD-ES, 0.04115 µM | 0.962
RD-ES, 0.1235 µM | 0.947
RD-ES, 0.3704 µM | 0.917
RD-ES, 1.111 µM | 0.879
RD-ES, 3.333 µM | 0.892
RD-ES, 10 µM | 0.879
SK-ES-1, 0.00017 µM | 1.08
SK-ES-1, 0.00051 µM | 1.12
SK-ES-1, 0.00152 µM | 1.09
SK-ES-1, 0.00457 µM | 1.11
SK-ES-1, 0.01372 µM | 1.07
SK-ES-1, 0.04115 µM | 1.02
SK-ES-1, 0.1235 µM | 1.01
SK-ES-1, 0.3704 µM | 0.993
SK-ES-1, 1.111 µM | 0.968
SK-ES-1, 3.333 µM | 0.915
SK-ES-1, 10 µM | 0.879
SW684, 0.00017 µM | 1.11
SW684, 0.00051 µM | 1.2
SW684, 0.00152 µM | 1.24
SW684, 0.00457 µM | 1.21
SW684, 0.01372 µM | 1.18
SW684, 0.04115 µM | 1.15
SW684, 0.1235 µM | 1.13
SW684, 0.3704 µM | 1.25
SW684, 1.111 µM | 1.21
SW684, 3.333 µM | 1.18
SW684, 10 µM | 1.19
SW872, 0.00017 µM | 1.04
SW872, 0.00051 µM | 1.08
SW872, 0.00152 µM | 1.07
SW872, 0.00457 µM | 1.05
SW872, 0.01372 µM | 1.06
SW872, 0.04115 µM | 1.04
SW872, 0.1235 µM | 1.06
SW872, 0.3704 µM | 1.04
SW872, 1.111 µM | 1.05
SW872, 3.333 µM | 1.04
SW872, 10 µM | 1.04
SW982, 0.00017 µM | 1.059
SW982, 0.00051 µM | 1.07
SW982, 0.00152 µM | 1.09
SW982, 0.00457 µM | 1.07
SW982, 0.01372 µM | 1.07
SW982, 0.04115 µM | 1.07
SW982, 0.1235 µM | 1.06
SW982, 0.3704 µM | 1.07
SW982, 1.111 µM | 1.06
SW982, 3.333 µM | 1.02
SW982, 10 µM | 1
SW1353, 0.00017 µM | 1.06
SW1353, 0.00051 µM | 1.06
SW1353, 0.00152 µM | 1.08
SW1353, 0.00457 µM | 1.07
SW1353, 0.01372 µM | 1.09
SW1353, 0.04115 µM | 1.08
SW1353, 0.1235 µM | 1.08
SW1353, 0.3704 µM | 1.09
SW1353, 1.111 µM | 1.079
SW1353, 3.333 µM | 1.07
SW1353, 10 µM | 0.959
SYO-1, 0.00017 µM | 0.993
SYO-1, 0.00051 µM | 0.992
SYO-1, 0.00152 µM | 0.975
SYO-1, 0.00457 µM | 0.975
SYO-1, 0.01372 µM | 0.954
SYO-1, 0.04115 µM | 0.957
SYO-1, 0.1235 µM | 0.915
SYO-1, 0.3704 µM | 0.865
SYO-1, 1.111 µM | 0.852
SYO-1, 3.333 µM | 0.813
SYO-1, 10 µM | 0.812
